Assay results from PMC10045483, “Comparative Pharmacokinetic Study of 5 Active Ingredients after Oral Administration of Zuogui Pill in Osteoporotic Rats with Different Syndrome Types” (International Journal of Analytical Chemistry, 2023).
Where two headings read alike, the source gives them in different places. One block for each molecule: values may come before it.

Experiments:
[1] = Stability of analytes in rat plasma (QC samples) under storage conditions; settings: n = 5; for Stability, Room temperature for 4 h, Mean: 25°C; for Stability, Three freeze-thaw cycles, Mean: −20°C to 25°C
Protocol: QC samples at three levels using five replicates were used to evaluate the stability under the following conditions: 4 h at room temperature (25°C), 24 h in autosampler (4°C), and three freeze-thaw cycles (−20°C to 25°C).

[2] = Pharmacokinetic study of 5 compounds in rat plasma after oral administration of Zuogui Pill extract (HPLC-MS/MS, noncompartmental analysis); format: in vivo, Female Sprague-Dawley rats; settings: oral Zuogui Pill extract 1.5 mL/100 g; for Cmax / Tmax / half-life / CL/F / MRT last / MRT inf: female, Sprague-Dawley, rat, po, 1.5 mL/100 g; for Cmax / Tmax / half-life / AUC0–t / AUC0–∞ / t 1/2: n = 6; for CL/F: n = 6, read-out: CL_F_obs (converted); for MRT last: n = 6, read-out: MRT0–t; for MRT inf: n = 6, read-out: MRT0–∞
Protocol: Female Sprague-Dawley rats (180–220 g) were purchased from Shanghai Laboratory Animal Centre (Shanghai, China). The rats were maintained in a standard environment (22 ± 1°C, 60 ± 10% relative humidity, and a 12 h light/dark cycle) for one week to acclimate and fed water and food ad libitum. Twenty-four rats were divided randomly into […] and treated through ovary enucleation to establish the model of osteoporosis. Ten weeks after operation, osteoporosis models of kidney-yang-deficiency and kidney-yin-deficiency were established by intramuscular injection of hydrocortisone (25 mg/kg) and intragastric administration of thyroxine suspension (160 mg/kg) for 10 days, respectively. The femur of two rats from each group was then stained with hematoxylin and eosin (H&E) to assess histopathological change. Also, the validation of osteoporosis kidney-yang-deficiency and kidney-yin-deficiency models was judged by detecting the level of cyclic adenosine monophosphate (cAMP) and cyclic guanosine monophosphate (cGMP) in rat plasma. Laboratory Animal Management and Ethics Committee of Zhejiang Chinese Medical University approved all animal treatments (ZSLL-2014-48).
One hundred microliters of plasma was mixed with 100 μL of the IS solution, followed by 700 μL of methanol:acetonitrile (1 : 1). After 2 min of vortex mixing, the mixture was spun for 15 min at 8000 rpm and 4°C. The supernatants were collected and dried in a high-purity N2 environment. The residues were redissolved in 100 μL methanol and centrifuged for 15 min at 13000 rpm and 4°C. Finally, an aliquot of 10 μL supernatants was used to conduct the analysis.
Four groups of rats were orally administered with Zuogui Pill extract at a dose of 1.5 mL/100 g. Then, 0.3 mL blood samples were collected from orbital veins at 0, 0.08, 0.17, 0.25, 0.5, 1, 2, 4, 6, 8, 12, and 24 h after administration, placed in an anticoagulant tube, and centrifuged for 15 min at 5000 rpm and 4°C. The plasma was prepared and stored at −20°C until analysis.
Phoenix WinNonlin 6.4 software was used to estimate pharmacokinetic parameters using noncompartmental analysis. Furthermore, SPSS 26 software was used to compute comparisons of the pharmacokinetic data among the four groups according to a one-way ANOVA. The results are presented as mean ± SD.

[3] = high QC (800, 16000, 3200, 400, 40 ng/mL in the same order)
[4] = low QC (2, 40, 8, 1, 0.1 ng/mL for chlorogenic acid, loganin, morroniside, aucubin, protocatechuic aldehyde)
[5] = middle QC (40, 800, 160, 20, 2 ng/mL in the same order)
[6] = osteoporosis rats (ovariectomized)
[7] = osteoporotic rats with kidney-yang-deficiency
[8] = osteoporotic rats with kidney-yin-deficiency

Stability, Room temperature for 4 h, Mean [1, 3]: 92.8% | Stability, Room temperature for 4 h, Mean [1, 4]: 89.8% | Stability, Room temperature for 4 h, Mean [1, 5]: 91.3% | Stability, Autosampler at 4°C for 24 h, Mean [1, 3]: 90.2% | Stability, Autosampler at 4°C for 24 h, Mean [1, 4]: 88.6% | Stability, Autosampler at 4°C for 24 h, Mean [1, 5]: 92.5% | Stability, Three freeze-thaw cycles, Mean [1, 3]: 89.1% | Stability, Three freeze-thaw cycles, Mean [1, 4]: 84.2% | Stability, Three freeze-thaw cycles, Mean [1, 5]: 86.9% | Cmax ([2]; normal rats): 84.4 ± 32.2 ng/mL | Tmax ([2]; normal rats): 0.38 ± 0.14 h | half-life ([2]; normal rats): 5.97 ± 2.89 h | CL/F ([2]; normal rats): 22.6 mL/min/kg | MRT last ([2]; normal rats): 5.38 ± 2.01 h | MRT inf ([2]; normal rats): 8.58 ± 2.71 h | Cmax [2, 6]: 103 ± 23.6 ng/mL | Tmax [2, 6]: 0.17 h | half-life [2, 6]: 3.67 ± 0.78 h | CL/F [2, 6]: 26.5 mL/min/kg | MRT last [2, 6]: 3.06 ± 0.12 h | MRT inf [2, 6]: 5.62 ± 1.09 h | Cmax [2, 7]: 96 ± 24.2 ng/mL | Tmax [2, 7]: 0.25 h | half-life [2, 7]: 7.4 ± 1.68 h | CL/F [2, 7]: 38.8 mL/min/kg | MRT last [2, 7]: 2.95 ± 0.38 h | MRT inf [2, 7]: 11.7 ± 1.31 h | Cmax [2, 8]: 181 ± 30.7 ng/mL | Tmax [2, 8]: 0.25 h | half-life [2, 8]: 8.68 ± 2.92 h | CL/F [2, 8]: 16 mL/min/kg | MRT last [2, 8]: 7.32 ± 1.92 h | MRT inf [2, 8]: 14.1 ± 5.85 h | AUC0–t ([2]; normal rats): 170.50 ± 64.82 h∗ng/mL | AUC0–∞ ([2]; normal rats): 204.69 ± 68.61 h∗ng/mL | AUC0–t [2, 6]: 116.40 ± 11.00 h∗ng/mL | AUC0–∞ [2, 6]: 155.64 ± 24.54 h∗ng/mL | AUC0–t [2, 7]: 48.33 ± 14.05^∗∗ h∗ng/mL | AUC0–∞ [2, 7]: 111.33 ± 29.94 h∗ng/mL | AUC0–t [2, 8]: 201.40 ± 32.43^∗∗ h∗ng/mL | AUC0–∞ [2, 8]: 272.67 ± 70.63^∗∗ h∗ng/mL
SMILES: OCC1=C[C@@H](O)[C@@H]2C=CO[C@@H](O[C@@H]3O[C@H](CO)[C@@H](O)[C@H](O)[C@H]3O)[C@H]12 [Aucubin, aucubin]

Stability, Room temperature for 4 h, Mean [1, 3]: 85.7% | Stability, Room temperature for 4 h, Mean [1, 5]: 85.9% | Stability, Autosampler at 4°C for 24 h, Mean [1, 3]: 87.3% | Stability, Autosampler at 4°C for 24 h, Mean [1, 5]: 93.7% | Stability, Three freeze-thaw cycles, Mean [1, 3]: 80.9% | Stability, Three freeze-thaw cycles, Mean [1, 5]: 89.3% | Cmax ([2]; normal rats): 346 ± 64 ng/mL | CL/F ([2]; normal rats): 15.2 mL/min/kg | MRT last ([2]; normal rats): 5.46 ± 0.48 h | MRT inf ([2]; normal rats): 8.17 ± 1.46 h | Cmax [2, 6]: 279 ± 56.3 ng/mL | Tmax [2, 6]: 0.26 ± 0.02 h | half-life [2, 6]: 6.38 ± 1.96 h | CL/F [2, 6]: 17.3 mL/min/kg | MRT last [2, 6]: 6.78 ± 0.68 h | MRT inf [2, 6]: 9.72 ± 2.61 h | Cmax [2, 7]: 430 ± 98.5 ng/mL | CL/F [2, 7]: 29.5 mL/min/kg | MRT last [2, 7]: 4.52 ± 1.46 h | MRT inf [2, 7]: 6.56 ± 2.64 h | Cmax [2, 8]: 354 ± 83.8 ng/mL | half-life [2, 8]: 6.61 ± 3.84 h | CL/F [2, 8]: 37.1 mL/min/kg | MRT last [2, 8]: 3.03 ± 0.38 h | MRT inf [2, 8]: 4.1 ± 1.02 h | AUC0–t ([2]; normal rats): 497.98 ± 34.72^∗ h∗ng/mL | AUC0–∞ ([2]; normal rats): 546.26 ± 38.80 h∗ng/mL | t 1/2 ([2]; normal rats): 8.17 ± 1.79 h | AUC0–t [2, 6]: 435.76 ± 59.78 h∗ng/mL | AUC0–∞ [2, 6]: 489.67 ± 77.69 h∗ng/mL | AUC0–t [2, 7]: 263.13 ± 40.25^∗∗ h∗ng/mL | AUC0–∞ [2, 7]: 284.31 ± 33.34^∗∗ h∗ng/mL | t 1/2 [2, 7]: 5.41 ± 1.84 h | AUC0–t [2, 8]: 218.55 ± 23.29^∗∗ h∗ng/mL | AUC0–∞ [2, 8]: 225.89 ± 25.03^∗∗ h∗ng/mL
SMILES: O=C(/C=C/c1ccc(O)c(O)c1)O[C@@H]1C[C@](O)(C(=O)O)C[C@@H](O)[C@H]1O [Chlorogenic acid, chlorogenic acid]

Stability, Room temperature for 4 h, Mean [1, 3]: 85.6% | Stability, Room temperature for 4 h, Mean [1, 4]: 88.3% | Stability, Room temperature for 4 h, Mean [1, 5]: 87.4% | Stability, Autosampler at 4°C for 24 h, Mean [1, 3]: 84.4% | Stability, Autosampler at 4°C for 24 h, Mean [1, 4]: 94.6% | Stability, Autosampler at 4°C for 24 h, Mean [1, 5]: 85.8% | Stability, Three freeze-thaw cycles, Mean [1, 3]: 92.4% | Stability, Three freeze-thaw cycles, Mean [1, 4]: 86.4% | Stability, Three freeze-thaw cycles, Mean [1, 5]: 89.5% | Cmax ([2]; normal rats): 13500 ± 2030 ng/mL | Tmax ([2]; normal rats): 0.25 h | half-life ([2]; normal rats): 4.51 ± 0.45 h | CL/F ([2]; normal rats): 6.03 mL/min/kg | MRT last ([2]; normal rats): 4.58 ± 0.47 h | MRT inf ([2]; normal rats): 5.1 ± 0.41 h | Cmax [2, 6]: 8380 ± 1120 ng/mL | Tmax [2, 6]: 0.25 h | half-life [2, 6]: 2.74 ± 0.96 h | CL/F [2, 6]: 7.67 mL/min/kg | MRT last [2, 6]: 4.91 ± 1.29 h | MRT inf [2, 6]: 5.02 ± 1.34 h | Cmax [2, 7]: 14.7 ± 1.38 ng/mL | Tmax [2, 7]: 0.21 ± 0.05 h | half-life [2, 7]: 5.62 ± 1.63 h | CL/F [2, 7]: 4280 mL/min/kg | MRT last [2, 7]: 5.5 ± 0.67 h | MRT inf [2, 7]: 6.62 ± 0.49 h | Cmax [2, 8]: 16000 ± 2790 ng/mL | Tmax [2, 8]: 0.25 h | half-life [2, 8]: 3.75 ± 0.7 h | CL/F [2, 8]: 2.94 mL/min/kg | MRT last [2, 8]: 6.51 ± 0.91 h | MRT inf [2, 8]: 6.92 ± 0.98 h | AUC0–t ([2]; normal rats): 20134.29 ± 3958.79 h∗ng/mL | AUC0–∞ ([2]; normal rats): 20523.97 ± 3947.05 h∗ng/mL | AUC0–t [2, 6]: 17912.12 ± 6898.16 h∗ng/mL | AUC0–∞ [2, 6]: 17998.56 ± 6945.75 h∗ng/mL | AUC0–t [2, 8]: 41028.61 ± 6356.26^∗∗ h∗ng/mL | AUC0–∞ [2, 8]: 41727.10 ± 6203.34^∗∗ h∗ng/mL
SMILES: COC(=O)C1=CO[C@@H](O[C@@H]2O[C@H](CO)[C@@H](O)[C@H](O)[C@H]2O)[C@@H]2[C@@H](C)[C@@H](O)C[C@H]12 [Loganin, loganin]
